Test systems include TK-10; LOX IMVI; SK-MEL-5; MOLT-4; UACC-257; ACHN; CAKI-1; SW-620; HCT-15; OVCAR-8; NCI-H23; SF-295; MDA-N; HCT-116; SN12C; SF-539; UO-31; KM12; IGROV-1; UACC-62.
Common to all, as to experiment: DTP human tumour cell line panel, 48 h

In general, GI50 refers to the concentration giving 50% growth inhibition.

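Assay format: 96-well plates, 48-hour exposure. GI50 is the concentration that inhibits growth by half.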 Activity calls are given as the source filed them. Rule as the data show it: active = GI50 up to about 1.1 µM and inactive = higher.

Take `COc1ccc(-c2nnc(CCCCCCCCc3nnc(-c4ccc(OC)cc4)o3)o2)cc1`: the GI50 with TK-10 was 65.2 µM (inactive); with LOX IMVI, 91.4 µM (inactive); in the test on SK-MEL-5 it was > 100 µM (inactive); with MOLT-4, > 100 µM (inactive); in the test with UACC-257, > 100 µM (inactive); in the test with ACHN, > 100 µM (inactive). Moreover, the GI50 was > 100 µM (inactive) in the test with CAKI-1; > 100 µM (inactive) in the test with SW-620; greater than 100 µM with HCT-15; 57.9 µM (inactive) in the test on OVCAR-8; > 100 µM (inactive) with NCI-H23; 50.4 µM (inactive) in the test on SF-295. The GI50 is > 100 µM (inactive) with MDA-N; 60.7 µM (inactive) in the test on HCT-116; > 100 µM (inactive) in the test with SN12C; 63.7 µM (inactive) with SF-539; > 100 µM (inactive) in the test with UO-31; > 100 µM (inactive) with KM12. Further, the GI50 in the test on IGROV-1 is > 100 µM (inactive).
For the compound `C=CC[C@@]12CCC(=O)C=C1CCCC2=O`, the GI50 with TK-10, with LOX IMVI, with SK-MEL-5, in the test with MOLT-4, with UACC-257 and in the test with ACHN was > 100 µM (inactive) in each case. The GI50 was > 100 µM (inactive) with CAKI-1; > 100 µM (inactive) with SW-620; greater than 100 µM in the test on HCT-15; > 100 µM (inactive) with UACC-62; > 100 µM (inactive) in the test on NCI-H23; > 100 µM (inactive) with SF-295. In addition, the GI50 in the test on MDA-N, in the test with HCT-116, with SN12C, with SF-539, in the test on UO-31 and in the test on IGROV-1 was > 100 µM (inactive) each time.
For the compound `CC1CC(N)=C(C#N)C1(C#N)C#N` (centres undefined), the GI50 was > 100 µM (inactive) with TK-10; > 100 µM (inactive) with LOX IMVI; > 100 µM (inactive) in the test on MOLT-4; > 100 µM (inactive) in the test on UACC-257; > 100 µM (inactive) with ACHN; 24.3 µM (inactive) with CAKI-1. Further, the GI50 is > 100 µM (inactive) in the test on SW-620; 28.4 µM in the test on HCT-15; > 100 µM (inactive) in the test on OVCAR-8; > 100 µM (inactive) with UACC-62; > 100 µM (inactive) in the test on NCI-H23; > 100 µM (inactive) with SF-295. The GI50 with MDA-N, in the test with HCT-116, in the test on SN12C, with SF-539, in the test on UO-31 and in the test on KM12 was > 100 µM (inactive) each time. Besides, in the test on IGROV-1, the GI50 was > 100 µM (inactive).
`COc1cc([C@@H]2c3cc4c(cc3[C@@H](Nc3ccc(/N=C\c5ccc(C(=O)O[C@@H](C(=O)O[C@H]6C[C@@]7(O)[C@@H](OC(=O)c8ccccc8)[C@@H]8[C@]9(OC(C)=O)CO[C@@H]9C[C@H](O)[C@@]8(C)C(=O)[C@H](OC(C)=O)C(=C6C)C7(C)C)[C@@H](NC(=O)c6ccccc6)c6ccccc6)cc5)cc3)[C@H]3COC(=O)[C@H]23)OCO4)cc(OC)c1O`: the GI50 with TK-10 was 10.4 µM (inactive); in the test on LOX IMVI, 3.49 µM (inactive); in the test on SK-MEL-5, 2.96 µM (inactive); in the test with MOLT-4, 0.14 µM (active); with UACC-257, 28.6 µM (inactive); with ACHN, 0.455 µM (active). Also, the 50% growth inhibitory concentration (GI50) in the test with CAKI-1 is 0.916 µM (active); with SW-620 it was 8.73 µM (inactive); with HCT-15 it was 7.96 µM; with OVCAR-8, 6.15 µM (inactive); in the test with UACC-62 it was 4.26 µM (inactive); with NCI-H23, 2.75 µM (inactive). Further, the GI50 in the test on SF-295 was 1.99 µM (inactive); in the test on MDA-N, 9.33 µM (inactive); with HCT-116, 3.28 µM (inactive); with SN12C, 2.88 µM (inactive); in the test on SF-539 it was 1.47 µM (inactive); in the test on KM12 it was 15.8 µM (inactive). The GI50 in the test with IGROV-1 was 12.4 µM (inactive).
As to `COc1cc(S(=O)(=O)Nc2ccc(-c3csc(N4C(=O)C(Cl)C4c4cccc(Oc5ccccc5)c4)n3)cc2)ccc1Cl` (centres undefined), the GI50 in the test on LOX IMVI was 2.24 µM (inactive); in the test with SK-MEL-5, 29.1 µM (inactive); in the test with MOLT-4 it was 15.3 µM (inactive); in the test with UACC-257, 39.6 µM (inactive); in the test with ACHN it was 24 µM (inactive); with CAKI-1 it was 20.2 µM (inactive). For the same compound, the GI50 with SW-620 is 36.1 µM (inactive); in the test on HCT-15 it was greater than 100 µM; in the test with OVCAR-8 it was 30.3 µM (inactive); with UACC-62, 24.5 µM (inactive); in the test with NCI-H23 it was 16 µM (inactive); in the test with SF-295 it was > 100 µM (inactive). For the same compound, the GI50 with MDA-N is 22.3 µM (inactive); with HCT-116, 35.6 µM (inactive); with SN12C it was 15.5 µM (inactive); with SF-539 it was 16.1 µM (inactive); in the test with UO-31, 21.2 µM (inactive); with KM12, 26.9 µM (inactive). Moreover, the GI50 in the test on IGROV-1 is 2.71 µM (inactive).
With `COc1ccc(-c2cc(-c3cc(F)c(Cl)cc3Cl)[nH]n2)cc1OC`, the GI50 was 43.4 µM (inactive) in the test with TK-10; 18.4 µM (inactive) with LOX IMVI; 17.1 µM (inactive) in the test on SK-MEL-5; 14.5 µM (inactive) with MOLT-4; 32.7 µM (inactive) in the test on UACC-257; 7.76 µM (inactive) in the test on ACHN. Moreover, the GI50 with CAKI-1 is 50.8 µM (inactive); in the test on SW-620 it was 29.6 µM (inactive); in the test on HCT-15, 21.2 µM; in the test with OVCAR-8, 34.4 µM (inactive); in the test on NCI-H23, 30 µM (inactive); in the test with SF-295, 18.3 µM (inactive). Also, the GI50 is 52.8 µM (inactive) in the test with MDA-N; 25.7 µM (inactive) in the test with HCT-116; 22.7 µM (inactive) with SN12C; 15.9 µM (inactive) with SF-539; 85.3 µM (inactive) in the test on UO-31; 26.4 µM (inactive) in the test on KM12. Moreover, the GI50 in the test with IGROV-1 was 19.2 µM (inactive).
Turning to `COCc1cc2c(cc1/C(=C/[N+](=O)[O-])CS(=O)(=O)c1ccccc1)OCO2`, the GI50 in the test on TK-10, in the test with LOX IMVI, in the test on SK-MEL-5, in the test with MOLT-4, with UACC-257 and in the test with ACHN was > 100 µM (inactive) in each case. The GI50 was > 100 µM (inactive) with CAKI-1; > 100 µM (inactive) in the test with SW-620; greater than 100 µM with HCT-15; > 100 µM (inactive) with OVCAR-8; > 100 µM (inactive) in the test with UACC-62; > 100 µM (inactive) in the test with NCI-H23. Also, the GI50 in the test with SF-295, in the test with MDA-N, in the test with HCT-116, in the test on SN12C, in the test on SF-539 and in the test with UO-31 was > 100 µM (inactive) in each case. In addition, in the test with IGROV-1, the GI50 was > 100 µM (inactive).
As for `O=C(N1CCN(c2ccccc2)CC1)N(C(=O)C1(c2ccc(Cl)cc2)CCCC1)S(=O)(=O)c1ccccc1`, the GI50 was 41.4 µM (inactive) with TK-10; 21.3 µM (inactive) in the test with LOX IMVI; 19.9 µM (inactive) in the test with SK-MEL-5; 23.3 µM (inactive) with MOLT-4; 28.3 µM (inactive) in the test on UACC-257; 14 µM (inactive) in the test with ACHN. Further, the GI50 with CAKI-1 was 26.5 µM (inactive); with SW-620, 32 µM (inactive); in the test on HCT-15, 25.1 µM; in the test with OVCAR-8 it was 33 µM (inactive); with UACC-62 it was 20.6 µM (inactive); in the test on NCI-H23, 26.7 µM (inactive). Besides, the GI50 is 24.6 µM (inactive) with SF-295; 22.1 µM (inactive) in the test with MDA-N; 22.5 µM (inactive) in the test with HCT-116; 28.3 µM (inactive) with SN12C; 22.1 µM (inactive) in the test with SF-539; 32.8 µM (inactive) in the test on UO-31. For the same compound, the GI50 with KM12 was 35.9 µM (inactive).
Regarding `OC(CC(O)(C(F)(F)Cl)C(F)(F)Cl)c1ccccc1` (centres undefined), the GI50 in the test with TK-10 was > 10 µM (inactive); with LOX IMVI, > 10 µM (inactive); with SK-MEL-5, 0.00809 µM (active); in the test on MOLT-4 it was > 10 µM (inactive); in the test with UACC-257, > 10 µM (inactive); in the test with ACHN it was > 10 µM (inactive). Also, the GI50 with CAKI-1 is > 10 µM (inactive); with SW-620 it was > 10 µM (inactive); with HCT-15, greater than 10 µM; in the test on OVCAR-8, > 10 µM (inactive); in the test with UACC-62, > 10 µM (inactive); with NCI-H23, > 10 µM (inactive). In addition, the GI50 in the test with SF-295, in the test on MDA-N, in the test on HCT-116, in the test on SN12C, in the test with SF-539 and with KM12 was > 10 µM (inactive) throughout. The GI50 in the test on IGROV-1 is 0.0258 µM (active).
As to `COc1ccc(N[S+]([O-])CCc2ccccc2)cc1` (centres undefined), the GI50 with TK-10, in the test with LOX IMVI, with SK-MEL-5, in the test with MOLT-4, in the test with UACC-257 and with ACHN was > 100 µM (inactive) each time. The GI50 in the test with CAKI-1 is > 100 µM (inactive); with SW-620, > 100 µM (inactive); in the test with HCT-15, greater than 100 µM; with OVCAR-8, > 100 µM (inactive); in the test on NCI-H23, > 100 µM (inactive); in the test on SF-295, > 100 µM (inactive). Besides, the GI50 in the test on MDA-N, in the test on HCT-116, in the test with SN12C, with SF-539, with UO-31 and in the test with KM12 was > 100 µM (inactive) each time. Also, the GI50 with IGROV-1 is 92.5 µM (inactive).
